According to patent US20250066769A1, “METHODS OF SCREENING AND TREATING FRAGILE X SYNDROME” (YISSUM RESEARCH DEVELOPMENT COMPANY OF THE HEBREW …, priority 2021, published 2025):

Legend:
[1] = tested on: FMR1 expression in FXS-iPSCs; experiment: RT-PCR analysis of FMR1 expression in FXS-iPSCs; format: cell-based, human; conditions: for FMR1 transcription levels (RT-PCR): lentiviral Cas9 and two sgRNAs per candidate gene, vs basal level
Source text: Cell lines: Throughout the study the following cell lines were used: The FXS-iPSCs cell line A52. Haploid hpESCs-hPES10. CSES7 and CSES9 hESCs and their derivatives were used as a reference for wild type expression. 293T cells were used for the construction of lentiviral constructs.
RNA isolation and reverse transcription: Total RNA was isolated using NucleoSpin RNA Plus kit (Macherey-Nagel) and reverse transcribed using the qScript® cDNA Synthesis Kit. Quantitative real time PCR (qRT-PCR) was performed using SYBR Green qPCR Supermix (Applied Biosystems) and analyzed with the 7300 real-time PCR system (Applied biosystems). FMR1 expression was assessed using specific primers, which amplified a 147 bp product spanning exons 5-6 of FMR1. GAPDH was used for normalization.
DNMT1 disruption assay: As human pluripotent stem cells require DNA methylation for their viability, heterogenous DNMT1-mutant populations of FXS-iPSCs were generated by infecting the cells with a lentiCRISPR v2 lentiviral vector containing an sgRNA that targets the open reading frame of DNMT1. The sgRNA sequence was cloned into the lentiCRISPR v2 plasmid and transformed into Stb13 chemically competent bacteria. Following plasmid isolation, 293T cells were transfected with sgRNA-containing lentiCRISPR V2, psPAX2, and pCMV-VSV-G plasmids at a ratio of 13.3:10:6.6, respectively, in the presence of polyethylenimine ‘Max’ (Polysciences). Lentiviral particle-containing supernatant was collected ˜65 hours after transfection and filtered using […] filters. For transduction, FXS-iPSCs were trypsinized, centrifuged, and suspended in embryonic stem cell media supplemented with 10 μM ROCK inhibitor (Y27632) and 8 μg/ml polybrene (Sigma). The viruses were added to the cell suspension, and the cells were plated on MEFs overnight. After ˜36 hours, the cells' medium was replaced with puromycin-containing medium ([…], Sigma). After 2-14 days selection with puromycin, cells were harvested for RNA extraction. To confirm DNMT1 mutagenesis in the transduced cells, qRT-PCR primers that were designed to have their 3′ ends around the Cas9 cut-site of DNMT1 were used to analyze the abundance of wild-type copies to DNMT1 transcripts.
Generation of gene knockouts: Ten candidate genes were targeted using a lentiviral construct containing Cas9 and a specific sgRNA (Table 2). Two sgRNAs were used to target each candidate gene. Each sgRNA sequence was inserted into a separate lentiCRISPR v2 vector (Addgene cat. No. 52961). As a control, a lentiCRISPR v2 vector without any sgRNA (empty vector) was used. Lentiviruses were produced using 293T cells cultured in 10 cm plates using transfection with the sgRNA-containing-lentiCRISPR v2 construct, psPAX2 (Addgene cat. No. 12260) and pCMV-VSV-G (Addgene cat. No. 8454) at a ratio of 5.32:4:2.64 ratio, in the presence of polyethylenimine “Max” (PEI-Max) (Polysciences) at a 1:2 ratio of DNA to PEI-Max. After 24 hours, the medium was exchanged with standard hESC medium, which was harvested 60-65 hours following transfection, centrifuged, and filtered through 0.45 μm cellulose acetate filters (Millipore). The filtered supernatant was frozen in aliquots at −70° C. For transduction, FXS-iPSCs or haploid human ESCs were trypsinized with TrypLE™ Select, centrifuged, and resuspended in hESC medium supplemented with 8 μg ml-1 polybrene (Sigma) and 10 μM ROCK inhibitor (Y27632). Thawed or fresh viruses were added to the cell suspension, followed by plating the cells on feeder layer MEFs. […]

[2] = tested on: methylated pFMR1-(240) CGG-EGFP construct in haploid hESCs; experiment: methylated pFMR1-(240) CGG-EGFP reporter transfection in mutant haploid hESCs, flow cytometry; format: cell-based, human; conditions: Cas9 + two sgRNAs per gene, compared to Cas9 without sgRNA
Method: In vitro DNA methylation: pFMR1-n (CGG)-eGFP construct was methylated using an M.SssI CpG methyltransferase (NEB) according to manufacturer's recommendations. SAM concentration was adjusted to 640 μM. DNA was extracted using ethanol precipitation.
Library transfection: 10 μM ROCK inhibitor (Y27632) was added 1 hour prior to trypsinization and transfection. Library cells were harvested using TrypLE™ Select Enzyme solution (Thermo Fisher Scientific, Cat #12563029) in a single cell state. Following the first centrifugation, cells were re-suspended twice with DMEM/F12 and centrifuged again before incubation with the plasmid DNA. Transfection of the methylated pFMR1-CGG (240)-EGFP construct was performed using the Xtreme Gene9 reagent (Roche), using standard conditions. 48 hours following transfection, cells were washed with PBS, harvested using TrypLE™ Select, resuspended in PBS supplemented with 15% fetal bovine serum (FBS) and filtered through a 70-μm cell strainer (Corning) and sorted using BD FACDAria III. Transfection efficiency was assessed using the simultaneous transfection of control haploid hESCs with an unmethylated pFMR1-CGG (240)-EGFP construct.
Generation of gene knockouts: Ten candidate genes were targeted using a lentiviral construct containing Cas9 and a specific sgRNA (Table 2). Two sgRNAs were used to target each candidate gene. Each sgRNA sequence was inserted into a separate lentiCRISPR v2 vector (Addgene cat. No. 52961). As a control, a lentiCRISPR v2 vector without any sgRNA (empty vector) was used. Lentiviruses were produced using 293T cells cultured in 10 cm plates using transfection with the sgRNA-containing-lentiCRISPR v2 construct, psPAX2 (Addgene cat. No. 12260) and pCMV-VSV-G (Addgene cat. No. 8454) at a ratio of 5.32:4:2.64 ratio, in the presence of polyethylenimine “Max” (PEI-Max) (Polysciences) at a 1:2 ratio of DNA to PEI-Max. After 24 hours, the medium was exchanged with standard hESC medium, which was harvested 60-65 hours following transfection, centrifuged, and filtered through 0.45 μm cellulose acetate filters (Millipore). […]

Substance | FMR1 expression (RT-PCR) ([1]; 5 μM, 4 days) | methylated construct expression (relative GFP fluorescence) [2] | FMR1 transcription levels (RT-PCR) [1] | FMR1 expression (RT-PCR) ([1]; lentiviral sgRNA + Cas9, collected 7-14 days after start of selection, vs control FXS-iPSCs)
5′-aza-2′-deoxycytidine [5-azadC, reference compound] | reactivation of FMR1 expression | – | – | –
C6orf57: lentiviral Cas9 constructs with two sgRNAs targeting C6orf57 (guide 1 GAGACCCAGCTAAGCAACCA; guide 2 TCCCAATCTCCATATCGGGT; expressed or natural sequence; listed as Homo sapiens) | – | highest levels of methylated construct expression | some increase above basal FMR1 transcription levels | –
SMARCD1: lentiviral Cas9 constructs with two sgRNAs targeting SMARCD1 (guide 1 GGAGCCGGGCCCATTCGCAC; guide 2 GCCACTACCCAGGAGACCGA; expressed or natural sequence; listed as Homo sapiens) | – | highest levels of methylated construct expression | some increase above basal FMR1 transcription levels | –
ZNF217: lentiviral Cas9 constructs with two sgRNAs targeting ZNF217 (guide 1 GTGGTGAACGGATCGAGCTG; guide 2 TCTGGATGAAAATGGAGCCG; expressed or natural sequence; listed as Homo sapiens) | – | highest levels of methylated construct expression | some increase above basal FMR1 transcription levels | –
sgRNA targeting DNMT1: lentiCRISPR v2 vector with Cas9 and sgRNA GAGGCCAGAAGGAGGAACCG targeting DNMT1 (listed as Homo sapiens) | – | – | – | reactivation of FMR1 expression
